Reference: paper PMC4970648, “Studies on 16α-Hydroxylation of Steroid Molecules and Regioselective Binding Mode in Homology-Modeled Cytochrome P450-2C11” (International Journal of Medicinal Chemistry, 2010)

target: [3H]PROG 16α-hydroxylating activity by male rat liver microsomes (CYP2C11) (Rattus norvegicus, UniProt P08683); assay: Inhibition of [3H]progesterone 16α-hydroxylation by adult male rat liver microsomes; conditions: not given
Description: Approximately 95-day-old male Wistar rats, castrated on the 70th day after birth, were used. The liver microsomes were prepared as previously described. The experiments were performed according to instrumental guidelines for the care and use of laboratory animals.
The metabolism by rat liver microsomes were examined, according to our previously described procedure. Briefly, the microsomal suspension (400–600 μg of protein/2.2 mL, total volume of the reaction mixture) was preincubated with [3H]PROG (20 nM) under the absence or presence of an unlabeled steroid (0.01–10 μM) at 36°C for 30 min. […] After the incubation, two identical samples were mixed and extracted with toluene. The toluene-extractable [3H]PROG metabolites (more than 90%) were isolated by various paper chromatographic systems and then identified by recrysallization method. Other miscellaneous procedures are described in our previous papers.

[3H]PROG 16α-hydroxylating activity by male rat liver microsomes (CYP2C11), sequence (P08683 whole entry): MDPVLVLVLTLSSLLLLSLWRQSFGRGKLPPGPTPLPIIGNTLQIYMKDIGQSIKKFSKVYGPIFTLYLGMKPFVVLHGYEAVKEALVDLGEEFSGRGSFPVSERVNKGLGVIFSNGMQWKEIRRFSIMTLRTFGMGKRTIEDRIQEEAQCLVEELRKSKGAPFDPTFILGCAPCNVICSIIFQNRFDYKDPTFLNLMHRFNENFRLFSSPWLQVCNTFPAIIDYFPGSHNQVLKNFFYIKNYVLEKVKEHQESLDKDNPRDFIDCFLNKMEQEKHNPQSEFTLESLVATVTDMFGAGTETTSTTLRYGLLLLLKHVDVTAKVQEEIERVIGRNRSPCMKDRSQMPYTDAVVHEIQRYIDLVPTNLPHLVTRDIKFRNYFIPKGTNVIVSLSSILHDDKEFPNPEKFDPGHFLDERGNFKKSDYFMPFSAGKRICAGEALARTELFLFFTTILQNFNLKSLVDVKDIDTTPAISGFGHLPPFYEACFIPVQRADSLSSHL

| Compound | [3H]PROG16α-hydroxylation (IC40) |
| --- | --- |
| CC(=O)[C@H]1[C@H](O)C[C@H]2[C@@H]3CC[C@H]4C[C@@H](O)CC[C@]4(C)[C@H]3CC[C@@]21C [compound 36, 3β,16α-Dihydroxy-5α-pregnan-20-one] | 1150 nM |

same assay, conditions: 40% inhibition not reached at 10 μM of unlabeled steroid; male rat liver microsomes

| Compound | [3H]PROG16α-hydroxylation (IC40), given as bound in μM |
| --- | --- |
| C[C@]12C[C@H](O)[C@H]3[C@@H](CCC4=CC(=O)CC[C@@]43C)[C@@H]1CC[C@@H]2C(=O)CO [compound 16, Corticosterone] | >10 µM |
| CC(=O)[C@H]1CC[C@H]2[C@@H]3CCC4=CC(=O)CC[C@]4(C)[C@H]3[C@@H](O)C[C@]12C [compound 7, 11β-Hydroxyprogesterone] | >10 µM |
| CC(=O)[C@H]1CC[C@H]2[C@@H]3CCC4=CC(=O)CC[C@]4(C)[C@H]3CC[C@]12CO [compound 10, 18-Hydroxyprogesterone] | >10 µM |
| CC(=O)O[C@@H]1C[C@]2(C)[C@@H](C(C)=O)CC[C@H]2[C@@H]2CCC3=CC(=O)CC[C@]3(C)[C@H]21 [compound 6, 11α-Acetoxyprogesterone] | >10 µM |
| CC(=O)[C@H]1CC[C@H]2[C@@H]3CC[C@H]4C[C@H](OS(=O)(=O)O)CC[C@]4(C)[C@H]3CC[C@]12C [compound 31, 3α-Sulfate-5 α -pregnan-20-one] | >10 µM |
| C[C@H](O)[C@H]1CC[C@H]2[C@@H]3CC=C4C[C@@H](O)CC[C@]4(C)[C@H]3CC[C@]12C [compound 21, 20α-Hydroxypregnenolone] | >10 µM |
| CC(=O)[C@H]1CC[C@H]2[C@@H]3C[C@@H](O)C4=CC(=O)CC[C@]4(C)[C@H]3CC[C@]12C [compound 3, 6β-Hydroxyprogesterone] | >10 μM^c |
| C[C@]12CC[C@H]3[C@@H](CC=C4C[C@@H](O)CC[C@@]43C)[C@@H]1CC[C@@H]2C(=O)COS(=O)(=O)O [compound 24, 21-Sulfatepregnenolone] | >10 µM |
| C[C@@]12CCC[C@H]1[C@@H]1CC[C@H]3CCCC[C@]3(C)[C@H]1CC2 [compound 46, 5α-Androstane] | >10 µM |
| CC(=O)[C@H]1[C@H](C)C[C@H]2[C@@H]3CCC4=CC(=O)CC[C@]4(C)[C@H]3CC[C@@]21C [compound 9, 16α-Methylprogesterone] | >10 μM ^d |
| 3β-Pregnan-3-one [compound 37] | >10 µM |
| C[C@]12CC[C@H](OS(=O)(=O)O)CC1=CC[C@@H]1[C@@H]2CC[C@]2(C)C(=O)CC[C@@H]12 [compound 44, Dehydroepiandrosterone-3-sulfate] | >10 µM |
| CC(=O)OCC(=O)C1CCC2C3CCC4=CC(=O)CCC4(C)C3CCC12C (centres unmarked) [compound 15, 21-Acetoxyprogesterone] | >10 µM |
| CC(=O)[C@H]1[C@H](O)C[C@H]2[C@@H]3CCC4=CC(=O)CC[C@]4(C)[C@H]3CC[C@@]21C [compound 8, 16α-Hydroxyprogesterone] | >10 µM |
| CC(=O)[C@H]1CC[C@H]2[C@@H]3CCC4=CC(=O)CC[C@]4(CO)[C@H]3CC[C@]12C [compound 11, 19-Hydroxyprogesterone] | >10 µM |
| CC(=O)O[C@H]1CC[C@H]2[C@@H]3CCC4=CC(=O)CC[C@]4(C)[C@H]3CC[C@]12C [compound 42, 17β-Acetoxytestosterone] | >10 µM |
| C[C@@]12CCC[C@H]1[C@@H]1CC[C@@H]3CCCC[C@]3(C)[C@H]1CC2 [compound 47, 5β-Androstane] | >10 µM |
| C[C@H](O)[C@H]1CC[C@H]2[C@@H]3CCC4=CC(=O)CC[C@]4(C)[C@H]3CC[C@]12C [compound 13, 20α-Hydroxyprogesterone] | >10 µM |
| C[C@]12CC[C@H]3[C@@H](CCC4=CC(=O)CC[C@@]43C)[C@@H]1CC[C@@H]2C(=O)CO [compound 14, 21-Hydroxyprogesterone] | >10 µM |
| C[C@]12CCCC[C@@H]1CC[C@@H]1[C@@H]2CC[C@]2(C)[C@@H](O)CC[C@@H]12 [compound 52, 5α-Androstan-17β-ol] | >10 µM |

same assay, conditions: IC40 of progesterone 1 relative to IC40 of 33

| Compound | observed inhibitory potency index against [3H]PROG 16α-hydroxylation |
| --- | --- |
| CC(=O)[C@H]1CC[C@H]2[C@@H]3CC[C@@H]4C[C@H](O)CC[C@]4(C)[C@H]3CC[C@]12C [compound 33, 3α-Hydroxy-5 β -pregnan-20-one] | 31.46 |

same assay, conditions: molar concentration of unlabeled steroid causing 40% inhibition; [3H]PROG 20 nM; unlabeled steroid 0.01–10 μM; male rat liver microsomes

| Compound | [3H]PROG16α-hydroxylation (IC40) |
| --- | --- |
| C[C@]12CC[C@H]3[C@@H](CCC4=CC(=O)CC[C@@]43C)[C@@H]1CC[C@@H]2O [compound 41, Testosterone] | 1450 nM |
| CC(=O)O[C@H]1CC[C@@]2(C)C(=CC[C@H]3[C@@H]4CC[C@H](C(C)=O)[C@@]4(C)CC[C@@H]32)C1 [compound 18, Pregnenolone-3-acetate] | 800 nM |
| CC(=O)[C@H]1CC[C@H]2[C@@H]3CC[C@@H]4C[C@@H](O)CC[C@]4(C)[C@H]3CC[C@]12C [compound 34, 3β-Hydroxy-5 β -pregnan-20-one] | 170 nM |
| CC(=O)O[C@@H]1C[C@H]2[C@@H]3CC[C@H](C(C)=O)[C@@]3(C)CC[C@@H]2[C@@]2(C)CCC(=O)C=C12 [compound 4, 6β-Acetoxyprogesterone] | 740 nM |
| CC(=O)[C@H]1CC[C@H]2[C@@H]3CC[C@H]4C[C@H](O)CC[C@]4(C)[C@H]3CC[C@]12C [compound 29, 3α-Hydroxy-5 α -pregnan-20-one] | 62 nM |
| C[C@]12CC[C@H](O)C[C@@H]1CC[C@@H]1[C@@H]2CC[C@]2(C)[C@@H](O)CC[C@@H]12 [compound 65, 5α-Androstan-3β,17β-diol] | 1110 nM |
| C[C@]12CCC(=O)C=C1CC[C@@H]1[C@@H]2CC[C@]2(C)C(=O)CC[C@@H]12 [compound 38, 4-Androsten-3,17-dione] | 1000 nM |
| C[C@@]12CCC[C@H]1[C@@H]1CC[C@@H]3C[C@H](O)CC[C@]3(C)[C@H]1CC2 [compound 50, 5β-Androstan-3α-ol] | 510 nM |
| C[C@]12CCC(=O)C[C@H]1CC[C@@H]1[C@@H]2CC[C@]2(C)C(=O)CC[C@@H]12 [compound 55, 5β-Androstan-3,17-dione] | 480 nM |
| C[C@]12CCC(=O)C[C@@H]1CC[C@@H]1[C@@H]2CC[C@]2(C)C(=O)CC[C@@H]12 [compound 54, 5α-Androstan-3,17-dione] | 650 nM |
| CC(=O)[C@H]1CC[C@H]2[C@@H]3CC[C@@H]4C[C@H](O)CC[C@]4(C)[C@H]3CC[C@]12C [compound 33, 3α-Hydroxy-5 β -pregnan-20-one] | 24 nM |
| CC(=O)[C@H]1CC[C@H]2[C@@H]3CCC4=CC(=O)CC[C@]4(C)[C@H]3CC[C@]12C [compound 1, Progesterone] | 755 nM |
| CC(=O)O[C@H]1CC[C@H]2[C@@H]3CC[C@H]4C[C@H](O)CC[C@]4(C)[C@H]3CC[C@]12C [compound 63, 5α-Androstan-3α,17β-diol-17-acetate] | 300 nM |
| C[C@@]12CCC[C@H]1[C@@H]1CC[C@H]3C[C@@H](O)CC[C@]3(C)[C@H]1CC2 [compound 49, 5α-Androstan-3β-ol] | 650 nM |
| C[C@]12CC[C@H]3[C@@H](CC=C4C[C@@H](O)CC[C@@]43C)[C@@H]1CC[C@@H]2O [compound 45, 5-Androstenediol] | 640 nM |
| C[C@]12CC[C@H](O)C[C@H]1CC[C@@H]1[C@@H]2CC[C@]2(C)[C@@H](O)CC[C@@H]12 [compound 69, 5β-Androstan-3β,17β-diol] | 320 nM |
| C[C@@]12CCC[C@H]1[C@@H]1CC[C@H]3C[C@H](O)CC[C@]3(C)[C@H]1CC2 [compound 48, 5α-Androstan-3α-ol] | 1030 nM |
| CC(=O)[C@H]1CC[C@H]2[C@@H]3CC[C@@H]4CC(=O)CC[C@]4(C)[C@H]3CC[C@]12C [compound 28, 5β-Pregnan-3,20-dione] | 395 nM |
| CC(=O)OCC(=O)[C@H]1CC[C@H]2[C@@H]3CC=C4C[C@@H](O)CC[C@]4(C)[C@H]3CC[C@]12C [compound 23, 21-Acetoxypregnenolone] | 600 nM |
| CC(=O)[C@H]1CC[C@H]2[C@@H]3CC[C@H]4C[C@@H](O)CC[C@]4(C)[C@H]3CC[C@]12C [compound 32, 3β-Hydroxy-5 α -pregnan-20-one] | 225 nM |
| COC(=O)[C@@H]1C[C@@H](O)C[C@H]2CC[C@H]3[C@@H]4CCC[C@@]4(C)CC[C@@H]3[C@]21C [compound 68, 5β-Androstan-3α-ol-1β-carboxylic acid methyl ester] | 43 nM |
| CC(=O)[C@H]1CC[C@H]2[C@@H]3CC[C@H]4CC(=O)CC[C@]4(C)[C@H]3CC[C@]12C [compound 27, 5α-Pregnan-3,20-dione] | 720 nM |
| CC(=O)[C@H]1CC[C@H]2[C@@H]3CCC4=C[C@@H](O)CC[C@]4(C)[C@H]3CC[C@]12C [compound 2, 3β-Hydroxyprogesterone] | 255 nM |
| C[C@]12CCCC[C@H]1CC[C@@H]1[C@@H]2CC[C@]2(C)[C@@H](O)CC[C@@H]12 [compound 53, 5β-Androstan-17β-ol] | 365 nM |
| C[C@@]12CCC[C@H]1[C@@H]1CC[C@@H]3C[C@@H](O)CC[C@]3(C)[C@H]1CC2 [compound 51, 5β-Androstan-3β-ol] | 160 nM |
